# Assays:
# Assay in all cases: relative viability (nuclei count vs DMSO), 5 days (fraction); higher = more cells survive
# NCI-H1755 = system: NCI-H1755
# Method in brief: (§1)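 Values are medians from duplicate plates. Each reflects relative viability, defined as the nuclei count of treated wells over that of vehicle wells. Lung cancer cell lines in 1536-well plates were pin-tool dosed one day after seeding with one drug alone or with a fixed anchor-drug dose plus five library-drug doses (not always all listed) in √10 steps, then fixed, stained and imaged at 4× after 5 days.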
# NCI-H1651 = system: NCI-H1651
# Method in brief: as §1
# LCLC-103H = system: LCLC-103H
# Method in brief: as §1
# EPLC-272H = system: EPLC-272H
# Method in brief: as §1
# NCI-H1355 = system: NCI-H1355
# Method in brief: as §1
# COR-L 105 = system: COR-L 105
# Method in brief: as §1
# HCC-44 = system: HCC-44
# Method in brief: as §1
# NCI-H1975 = system: NCI-H1975
# Method in brief: as §1
# SW 1573 = system: SW 1573
# Method in brief: as §1
# NCI-H2228 = system: NCI-H2228
# Method in brief: as §1
# PC-3 [JPC-3] = system: PC-3 [JPC-3]
# Method in brief: as §1
# HARA = system: HARA
# Method in brief: as §1
# NCI-H596 = system: NCI-H596
# Method in brief: as §1
# NCI-H2170 = system: NCI-H2170
# Method in brief: as §1
# NCI-H838 = system: NCI-H838
# Method in brief: as §1
# HCC-366 = system: HCC-366
# Method in brief: as §1
# HCC-78 = system: HCC-78
# Method in brief: as §1
# HCC-827 = system: HCC-827
# Method in brief: as §1
# NCI-H1993 = system: NCI-H1993
# Method in brief: as §1
# NCI-H1793 = system: NCI-H1793
# Method in brief: as §1
# NCI-H520 = system: NCI-H520
# Method in brief: as §1
# LOU-NH91 = system: LOU-NH91
# Method in brief: as §1
# SK-MES-1 = system: SK-MES-1
# Method in brief: as §1
# UMC-11 = system: UMC-11
# Method in brief: as §1
# RERF-LC-KJ = system: RERF-LC-KJ
# Method in brief: as §1
compound,measurement,setting,value
Nc1cccc2c1CN(C1CCC(=O)NC1=O)C2=O (stereo not given) [Lenalidomide] + Cc1cc(Nc2cc(N3CCN(C)CC3)nc(Sc3ccc(NC(=O)C4CC4)cc3)n2)n[nH]1 [Tozasertib] (partner 0.1 µM),relative viability,NCI-H1755; first compound 0.253 µM,0.638
same,relative viability,NCI-H1755; first compound 0.8 µM,0.614
same,relative viability,NCI-H1755; first compound 2.53 µM,0.597
same,relative viability,NCI-H1755; first compound 8 µM,0.541
same,relative viability,NCI-H1651; first compound 0.253 µM,0.749
same,relative viability,NCI-H1651; first compound 0.8 µM,0.772
same,relative viability,NCI-H1651; first compound 2.53 µM,0.819
same,relative viability,NCI-H1651; first compound 8 µM,0.815
same,relative viability,LCLC-103H; first compound 0.253 µM,0.47
same,relative viability,LCLC-103H; first compound 0.8 µM,0.517
same,relative viability,LCLC-103H; first compound 2.53 µM,0.644
same,relative viability,LCLC-103H; first compound 8 µM,0.566
same,relative viability,EPLC-272H; first compound 0.253 µM,0.343
same,relative viability,EPLC-272H; first compound 0.8 µM,0.229
same,relative viability,EPLC-272H; first compound 2.53 µM,0.349
same,relative viability,EPLC-272H; first compound 8 µM,0.256
same,relative viability,NCI-H1355; first compound 0.253 µM,0.578
same,relative viability,NCI-H1355; first compound 2.53 µM,0.559
same,relative viability,NCI-H1355; first compound 8 µM,0.59
same,relative viability,COR-L 105; first compound 0.253 µM,0.351
same,relative viability,COR-L 105; first compound 0.8 µM,0.31
same,relative viability,COR-L 105; first compound 2.53 µM,0.402
same,relative viability,COR-L 105; first compound 8 µM,0.373
same,relative viability,HCC-44; first compound 0.253 µM,0.886
same,relative viability,HCC-44; first compound 2.53 µM,1.22
same,relative viability,HCC-44; first compound 8 µM,1.12
same,relative viability,NCI-H1975; first compound 0.253 µM,0.886
same,relative viability,NCI-H1975; first compound 0.8 µM,0.755
same,relative viability,NCI-H1975; first compound 2.53 µM,0.844
same,relative viability,NCI-H1975; first compound 8 µM,0.849
same,relative viability,SW 1573; first compound 0.253 µM,0.159
same,relative viability,SW 1573; first compound 0.8 µM,0.193
same,relative viability,SW 1573; first compound 2.53 µM,0.276
same,relative viability,SW 1573; first compound 8 µM,0.198
same,relative viability,NCI-H2228; first compound 0.253 µM,0.288
same,relative viability,NCI-H2228; first compound 0.8 µM,0.338
same,relative viability,NCI-H2228; first compound 2.53 µM,0.283
same,relative viability,NCI-H2228; first compound 8 µM,0.345
same,relative viability,PC-3 [JPC-3]; first compound 0.253 µM,0.909
same,relative viability,PC-3 [JPC-3]; first compound 0.8 µM,0.899
same,relative viability,PC-3 [JPC-3]; first compound 2.53 µM,1.03
same,relative viability,PC-3 [JPC-3]; first compound 8 µM,0.955
same,relative viability,HARA; first compound 0.253 µM,0.0944
same,relative viability,HARA; first compound 2.53 µM,0.133
same,relative viability,HARA; first compound 8 µM,0.103
same,relative viability,NCI-H596; first compound 0.253 µM,0.755
same,relative viability,NCI-H596; first compound 2.53 µM,0.904
same,relative viability,NCI-H596; first compound 8 µM,0.774
same,relative viability,NCI-H2170; first compound 0.253 µM,0.612
same,relative viability,NCI-H2170; first compound 0.8 µM,0.608
same,relative viability,NCI-H2170; first compound 2.53 µM,0.747
same,relative viability,NCI-H2170; first compound 8 µM,0.753
same,relative viability,NCI-H838; first compound 0.253 µM,0.322
same,relative viability,NCI-H838; first compound 0.8 µM,0.28
same,relative viability,NCI-H838; first compound 2.53 µM,0.317
same,relative viability,NCI-H838; first compound 8 µM,0.298
same,relative viability,HCC-366; first compound 0.253 µM,0.14
same,relative viability,HCC-366; first compound 0.8 µM,0.128
same,relative viability,HCC-366; first compound 2.53 µM,0.154
same,relative viability,HCC-366; first compound 8 µM,0.131
same,relative viability,HCC-78; first compound 0.253 µM,0.537
same,relative viability,HCC-78; first compound 0.8 µM,0.44
same,relative viability,HCC-78; first compound 2.53 µM,0.443
same,relative viability,HCC-78; first compound 8 µM,0.49
same,relative viability,HCC-827; first compound 0.253 µM,0.47
same,relative viability,HCC-827; first compound 0.8 µM,0.41
same,relative viability,HCC-827; first compound 2.53 µM,0.455
same,relative viability,HCC-827; first compound 8 µM,0.462
same,relative viability,NCI-H1993; first compound 0.253 µM,0.529
same,relative viability,NCI-H1993; first compound 0.8 µM,0.572
same,relative viability,NCI-H1993; first compound 2.53 µM,0.618
same,relative viability,NCI-H1993; first compound 8 µM,0.524
same,relative viability,NCI-H1793; first compound 0.253 µM,0.356
same,relative viability,NCI-H1793; first compound 2.53 µM,0.383
same,relative viability,NCI-H1793; first compound 8 µM,0.349
same,relative viability,NCI-H520; first compound 0.253 µM,0.429
same,relative viability,NCI-H520; first compound 0.8 µM,0.461
same,relative viability,NCI-H520; first compound 2.53 µM,0.468
same,relative viability,NCI-H520; first compound 8 µM,0.374
same,relative viability,LOU-NH91; first compound 0.253 µM,0.715
same,relative viability,LOU-NH91; first compound 0.8 µM,0.737
same,relative viability,LOU-NH91; first compound 2.53 µM,0.715
same,relative viability,LOU-NH91; first compound 8 µM,0.73
same,relative viability,SK-MES-1; first compound 0.253 µM,0.865
same,relative viability,SK-MES-1; first compound 0.8 µM,0.802
same,relative viability,SK-MES-1; first compound 2.53 µM,0.913
same,relative viability,SK-MES-1; first compound 8 µM,0.98
same,relative viability,UMC-11; first compound 0.253 µM,0.192
same,relative viability,UMC-11; first compound 0.8 µM,0.21
same,relative viability,UMC-11; first compound 2.53 µM,0.192
same,relative viability,UMC-11; first compound 8 µM,0.195
same,relative viability,RERF-LC-KJ; first compound 0.253 µM,0.507
same,relative viability,RERF-LC-KJ; first compound 0.8 µM,0.566
same,relative viability,RERF-LC-KJ; first compound 2.53 µM,0.515
same,relative viability,RERF-LC-KJ; first compound 8 µM,0.568

# From the supplement of paper PMC10307832
